Experiments:
[1] = target: T1, Recombinant STAT3 protein (STAT3(G127-I722)) (Homo sapiens, UniProt P40763); test: STAT3 Fluorescence Polarization (FP) Assay; format: binding; conditions: STAT3(G127-I722) 25 nM, probe 5-FAM-GpYLPQTV-NH2 2 nM, 45-minute incubation
T1 construct: Recombinant STAT3 protein (STAT3(G127-I722))
How it was run: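 STAT3(G127-I722), 25 nM, was mixed with 2 nM 5-FAM-GpYLPQTV-NH2 probe in HEPES pH 7.4 buffer with 1% DMSO and serially diluted compound. FP (mP) was read after 45 min at room temperature. IC50 came from nonlinear regression.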

[2] = target: T2, Recombinant STAT6 protein (STAT6(W123-T658)) (Homo sapiens, UniProt P42226); test: STAT6 Fluorescence Polarization (FP) Assay; format: binding; conditions: STAT6(W123-T658) 250 nM, probe 5-FAM-ApYKPFQDLI-NH2 2 nM, 45-minute incubation
T2 construct: Recombinant STAT6 protein (STAT6(W123-T658))
T2 sequence (P42226 123-658): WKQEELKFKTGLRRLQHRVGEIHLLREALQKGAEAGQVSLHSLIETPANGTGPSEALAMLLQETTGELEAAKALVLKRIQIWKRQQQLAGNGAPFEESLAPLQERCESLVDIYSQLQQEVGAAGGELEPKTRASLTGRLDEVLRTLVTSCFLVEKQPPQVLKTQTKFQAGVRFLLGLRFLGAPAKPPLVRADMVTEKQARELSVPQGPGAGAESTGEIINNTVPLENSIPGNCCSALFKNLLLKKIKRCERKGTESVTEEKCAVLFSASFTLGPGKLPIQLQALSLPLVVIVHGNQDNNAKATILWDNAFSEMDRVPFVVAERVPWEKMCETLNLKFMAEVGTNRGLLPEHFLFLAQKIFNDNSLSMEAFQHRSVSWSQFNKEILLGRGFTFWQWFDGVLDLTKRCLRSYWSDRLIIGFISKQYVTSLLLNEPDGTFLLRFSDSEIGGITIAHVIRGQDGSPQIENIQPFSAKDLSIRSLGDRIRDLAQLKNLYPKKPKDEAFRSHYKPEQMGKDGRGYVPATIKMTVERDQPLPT
How it was run: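 Displacement of a fluorescent phosphotyrosine peptide (5-FAM-ApYKPFQDLI-NH2, 2 nM) from STAT6(W123-T658) (250 nM), 1% DMSO, pH 7.4 HEPES buffer. After 45 min at room temperature, polarization (mP) was plotted versus log compound concentration and fitted by nonlinear regression to give IC50.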

T1 sequence (P40763 127-722): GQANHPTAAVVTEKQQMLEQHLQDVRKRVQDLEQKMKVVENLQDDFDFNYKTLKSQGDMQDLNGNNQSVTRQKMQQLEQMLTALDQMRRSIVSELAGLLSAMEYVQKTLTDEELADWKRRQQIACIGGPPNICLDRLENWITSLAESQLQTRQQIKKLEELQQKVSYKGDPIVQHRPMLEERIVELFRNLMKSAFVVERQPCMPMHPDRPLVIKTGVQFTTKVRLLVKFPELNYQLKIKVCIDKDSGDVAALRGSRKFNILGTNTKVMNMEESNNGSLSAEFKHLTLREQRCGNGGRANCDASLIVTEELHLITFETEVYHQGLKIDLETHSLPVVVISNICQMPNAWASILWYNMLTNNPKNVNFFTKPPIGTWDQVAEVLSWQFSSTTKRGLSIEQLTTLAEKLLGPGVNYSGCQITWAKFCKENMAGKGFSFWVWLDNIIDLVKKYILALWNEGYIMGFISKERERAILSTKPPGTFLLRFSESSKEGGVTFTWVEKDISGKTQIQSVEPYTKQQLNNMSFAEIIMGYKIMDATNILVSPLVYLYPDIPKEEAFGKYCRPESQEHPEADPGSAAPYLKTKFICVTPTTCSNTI

Row | IC50 [1] [µM] | IC50 [2] [µM] | SMILES
1 | 1 to 10 | 0.3 to 3 | CC(=O)N1CC[C@H]2CC[C@@H](C(=O)N(C)CC(C)(C)O)N2C(=O)[C@@H](NC(=O)c2cc3cc(C(F)(F)P(=O)(O)O)ccc3s2)C1 [Compound 91, ((2-(((5S,8S,10aR)-3-acetyl-8-((2-hydroxy-2-methylpropyl)(methyl)carbamoyl)-6-oxodecahydropyrrolo[1,2-a][1,5]diazocin-5-yl)carbamoyl)benzo[b]thiophen-5-yl)difluoromethyl)phosphonic acid]
2 | 1 to 10 | 0.3 to 3 | CC(=O)N1CC[C@H]2CC[C@@H](C(=O)N(C)CC(C)(C)C#N)N2C(=O)[C@@H](NC(=O)c2cc3cc(C(F)(F)P(=O)(O)O)ccc3s2)C1 [Compound 92, ((2-(((5S,8S,10aR)-3-acetyl-8-((2-cyano-2-methylpropyl)(methyl)carbamoyl)-6-oxodecahydropyrrolo[1,2-a][1,5]diazocin-5-yl)carbamoyl)benzo[b]thiophen-5-yl)difluoromethyl)phosphonic acid]
3 | 1 to 10 | 0.3 to 3 | CC(=O)N1CC[C@H]2CC[C@@H](C(=O)N(C)C3CCN(S(C)(=O)=O)CC3)N2C(=O)[C@@H](NC(=O)c2cc3cc(C(F)(F)P(=O)(O)O)ccc3s2)C1 [Compound 93, ((2-(((5S,8S,10aR)-3-acetyl-8-(methyl(1-(methylsulfonyl)piperidin-4-yl)carbamoyl)-6-oxodecahydropyrrolo[1,2-a][1,5]diazocin-5-yl)carbamoyl)benzo[b]thiophen-5-yl)difluoromethyl)phosphonic acid]
4 | 1 to 10 | 0.3 to 3 | CC(=O)N1CC[C@H]2CC[C@@H](C(=O)Nc3cnc(S(C)(=O)=O)nc3)N2C(=O)[C@@H](NC(=O)c2cc3cc(C(F)(F)P(=O)(O)O)ccc3s2)C1 [Compound 94, ((2-(((5S,8S,10aR)-3-acetyl-8-((2-(methylsulfonyl)pyrimidin-5-yl)carbamoyl)-6-oxodecahydropyrrolo[1,2-a][1,5]diazocin-5-yl)carbamoyl)benzo[b]thiophen-5-yl)difluoromethyl)phosphonic acid]
5 | 0.1 to 1 | 0.3 to 3 | CC(=O)N1CC[C@H]2CC[C@@H](C(=O)N3CCC(Oc4ccncc4)C3)N2C(=O)[C@@H](NC(=O)c2cc3cc(C(F)(F)P(=O)(O)O)ccc3s2)C1 (stereo partly drawn) [Compound 95, ((1-(((5S,8S,10aR)-3-acetyl-6-oxo-8-(3-(pyridin-4-yloxy)pyrrolidine-1-carbonyl)decahydropyrrolo[1,2-a][1,5]diazocin-5-yl)carbamoyl)benzo[b]thiophen-5-yl)difluoromethyl)phosphonic acid]
6 | 1 to 10 | ≤ 0.3 | CC(=O)N1CC[C@H]2CC[C@@H](C(=O)N(C)c3ccc(-c4ccccc4)cc3)N2C(=O)[C@@H](NC(=O)c2cc3cc(C(F)(F)P(=O)(O)O)ccc3s2)C1 [Compound 96, ((2-(((5S,8S,10aR)-8-([1,1′-biphenyl]-4-yl(methyl)carbamoyl)-3-acetyl-6-oxodecahydropyrrolo[1,2-a][1,5]diazocin-5-yl)carbamoyl)benzo[b]thiophen-5-yl)difluoromethyl)phosphonic acid]
7 | 0.1 to 1 | ≤ 0.3 | CC(=O)N1CC[C@H]2CC[C@@H](C(=O)N3CC[C@@H](c4ccccc4)C3)N2C(=O)[C@@H](NC(=O)c2cc3cc(C(F)(F)P(=O)(O)O)ccc3s2)C1 [Compound 97, ((2-(((5S,8S,10aR)-3-acetyl-6-oxo-8-((S)-3-phenylpyrrolidine-1-carbonyl)decahydropyrrolo[1,2-a][1,5]diazocin-5-yl)carbamoyl)benzo[b]thiophen-5-yl)difluoromethyl)phosphonic acid]
8 | 0.1 to 1 | 0.3 to 3 | CC(=O)N1CC[C@H]2CC[C@@H](C(=O)N3CC(Oc4ccccc4)C3)N2C(=O)[C@@H](NC(=O)c2cc3cc(C(F)(F)P(=O)(O)O)ccc3[nH]2)C1 [Compound 99, ((2-(((5S,8S,10aR)-3-acetyl-6-oxo-8-(3-phenoxyazetidine-1-carbonyl)decahydropyrrolo[1,2-a][1,5]diazocin-5-yl)carbamoyl)-1H-indol-5-yl)difluoromethyl)phosphonic acid]
9 | 0.1 to 1 | 0.3 to 3 | CC(=O)N1CC[C@H]2CC[C@@H](C(=O)N3CC(c4ccccc4)C3)N2C(=O)[C@@H](NC(=O)c2cc3cc(C(F)(F)P(=O)(O)O)ccc3[nH]2)C1 [Compound 100, ((2-(((5S,8S,10aR)-3-acetyl-6-oxo-8-(3-phenylazetidine-1-carbonyl)decahydropyrrolo[1,2-a][1,5]diazocin-5-yl)carbamoyl)-1H-indol-5-yl)difluoromethyl)phosphonic acid]
10 | 1 to 10 | 0.3 to 3 | CCOc1ccc(N(C)C(=O)[C@@H]2CC[C@@H]3CCN(C(C)=O)C[C@H](NC(=O)c4cc5cc(C(F)(F)P(=O)(O)O)ccc5[nH]4)C(=O)N32)cc1 [Compound 101, ((2-(((5S,8S,10aR)-3-acetyl-8-((4-ethoxyphenyl)(methyl)carbamoyl)-6-oxodecahydropyrrolo[1,2-a][1,5]diazocin-5-yl)carbamoyl)-1H-indol-5-yl)difluoromethyl)phosphonic acid]
11 | 1 to 10 | 0.3 to 3 | CC(=O)N1CC[C@H]2CC[C@@H](C(=O)N(C)c3ccc(OCCN(C)C)cc3)N2C(=O)[C@@H](NC(=O)c2cc3cc(C(F)(F)P(=O)(O)O)ccc3[nH]2)C1 [Compound 102, ((2-(((5S,8S,10aR)-3-acetyl-8-((4-(2-(dimethylamino)ethoxy)phenyl)(methyl)carbamoyl)-6-oxodecahydropyrrolo[1,2-a][1,5]diazocin-5-yl)carbamoyl)-1H-indol-5-yl)difluoromethyl)phosphonic acid]
12 | 1 to 10 | 3 to 30 | CC(=O)N1CC[C@H]2CC[C@@H](C(=O)Nc3ccc(-n4ccccc4=O)cc3)N2C(=O)[C@@H](NC(=O)c2cc3cc(C(F)(F)P(=O)(O)O)ccc3[nH]2)C1 [Compound 103, ((2-(((5S,8S,10aR)-3-acetyl-6-oxo-8-((4-(2-oxopyridin-1(2H)-yl)phenyl)carbamoyl)decahydropyrrolo[1,2-a][1,5]diazocin-5-yl)carbamoyl)-1H-indol-5-yl)difluoromethyl)phosphonic acid]
13 | 1 to 10 | 0.3 to 3 | CC(=O)N1CC[C@H]2CC[C@@H](C(=O)N3CCC3Cc3ccccc3)N2C(=O)[C@@H](NC(=O)c2cc3cc(C(F)(F)P(=O)(O)O)ccc3[nH]2)C1 (stereo partly drawn) [Compound 104, ((2-(((5S,8S,10aR)-3-acetyl-8-(2-benzylazetidine-1-carbonyl)-6-oxodecahydropyrrolo[1,2-a][1,5]diazocin-5-yl)carbamoyl)-1H-indol-5-yl)difluoromethyl)phosphonic acid]
14 | 0.1 to 1 | 0.3 to 3 | CC(=O)N1CC[C@H]2CC[C@@H](C(=O)Nc3ccn(-c4ccccc4)c(=O)c3C#N)N2C(=O)[C@@H](NC(=O)c2cc3cc(C(F)(F)P(=O)(O)O)ccc3[nH]2)C1 [Compound 105, ((2-(((5S,8S,10aR)-3-acetyl-8-((3-cyano-2-oxo-1-phenyl-1,2-dihydropyridin-4-yl)carbamoyl)-6-oxodecahydropyrrolo[1,2-a][1,5]diazocin-5-yl)carbamoyl)-1H-indol-5-yl)difluoromethyl)phosphonic acid]
15 | 1 to 10 | 0.3 to 3 | CC(=O)N1CC[C@H]2CC[C@@H](C(=O)N3CCCC[C@H]3Cc3ccccc3)N2C(=O)[C@@H](NC(=O)c2cc3cc(C(F)(F)P(=O)(O)O)ccc3[nH]2)C1 [Compound 106, ((2-(((5S,8S,10aR)-3-acetyl-8-((S)-2-benzylpiperidine-1-carbonyl)-6-oxodecahydropyrrolo[1,2-a][1,5]diazocin-5-yl)carbamoyl)-1H-indol-5-yl)difluoromethyl)phosphonic acid]
16 | 1 to 10 | ≤ 0.3 | CC(=O)N1CC[C@H]2CC[C@@H](C(=O)N3CCC[C@@H](c4ccccc4)C3)N2C(=O)[C@@H](NC(=O)c2cc3cc(C(F)(F)P(=O)(O)O)ccc3[nH]2)C1 [Compound 107, ((2-(((5S,8S,10aR)-3-acetyl-6-oxo-8-((S)-3-phenylpiperidine-1-carbonyl)decahydropyrrolo[1,2-a][1,5]diazocin-5-yl)carbamoyl)-1H-indol-5-yl)difluoromethyl)phosphonic acid]
17 | 1 to 10 | 0.3 to 3 | CC(=O)N1CC[C@H]2CC[C@@H](C(=O)N(C)c3ccccc3C#N)N2C(=O)[C@@H](NC(=O)c2cc3cc(C(F)(F)P(=O)(O)O)ccc3[nH]2)C1 [Compound 108, ((2-(((5S,8S,10aR)-3-acetyl-8-((2-cyanophenyl)(methyl)carbamoyl)-6-oxodecahydropyrrolo[1,2-a][1,5]diazocin-5-yl)carbamoyl)-1H-indol-5-yl)difluoromethyl)phosphonic acid]

Reference: patent US20250179103A1, “6-OXODECAHYDROPYRROLO[1,2-A][1,5]DIAZOCINE AND 6-OXODECAHYDRO-4H-PYRROLO[2,1-D][1,5]THIAZOCINE DERIVATIVES AS STAT3 AND STAT6 MODULATORS FOR THE TREATMENT OF CANCER AND INFLAMMATORY CONDITIONS” (Recludix Pharma, Inc., priority 2022, published 2025)
